# Test results as given in patent publication US11911386B2, “Methods of treating B-cell proliferative disorder” (BeiGene Switzerland GmbH, priority 2022, dated 2024).
# Where two headings read alike, the source gives them in different places.
# What was measured:
# panel of 370 kinases = test: Kinome profiling at 100xIC50 (BTK) concentrations; assay type: biochemical; conditions: 100×IC50 (BTK) concentration
# P-glycoprotein = target: T1, P-glycoprotein (Homo sapiens, UniProt P08183); conditions: repeated dosing of zanubrutinib; cited from earlier work
# T1 construct: endogenous in cells; host or cells: human subjects in vivo (clinical study)
# T1 sequence (P08183 whole entry): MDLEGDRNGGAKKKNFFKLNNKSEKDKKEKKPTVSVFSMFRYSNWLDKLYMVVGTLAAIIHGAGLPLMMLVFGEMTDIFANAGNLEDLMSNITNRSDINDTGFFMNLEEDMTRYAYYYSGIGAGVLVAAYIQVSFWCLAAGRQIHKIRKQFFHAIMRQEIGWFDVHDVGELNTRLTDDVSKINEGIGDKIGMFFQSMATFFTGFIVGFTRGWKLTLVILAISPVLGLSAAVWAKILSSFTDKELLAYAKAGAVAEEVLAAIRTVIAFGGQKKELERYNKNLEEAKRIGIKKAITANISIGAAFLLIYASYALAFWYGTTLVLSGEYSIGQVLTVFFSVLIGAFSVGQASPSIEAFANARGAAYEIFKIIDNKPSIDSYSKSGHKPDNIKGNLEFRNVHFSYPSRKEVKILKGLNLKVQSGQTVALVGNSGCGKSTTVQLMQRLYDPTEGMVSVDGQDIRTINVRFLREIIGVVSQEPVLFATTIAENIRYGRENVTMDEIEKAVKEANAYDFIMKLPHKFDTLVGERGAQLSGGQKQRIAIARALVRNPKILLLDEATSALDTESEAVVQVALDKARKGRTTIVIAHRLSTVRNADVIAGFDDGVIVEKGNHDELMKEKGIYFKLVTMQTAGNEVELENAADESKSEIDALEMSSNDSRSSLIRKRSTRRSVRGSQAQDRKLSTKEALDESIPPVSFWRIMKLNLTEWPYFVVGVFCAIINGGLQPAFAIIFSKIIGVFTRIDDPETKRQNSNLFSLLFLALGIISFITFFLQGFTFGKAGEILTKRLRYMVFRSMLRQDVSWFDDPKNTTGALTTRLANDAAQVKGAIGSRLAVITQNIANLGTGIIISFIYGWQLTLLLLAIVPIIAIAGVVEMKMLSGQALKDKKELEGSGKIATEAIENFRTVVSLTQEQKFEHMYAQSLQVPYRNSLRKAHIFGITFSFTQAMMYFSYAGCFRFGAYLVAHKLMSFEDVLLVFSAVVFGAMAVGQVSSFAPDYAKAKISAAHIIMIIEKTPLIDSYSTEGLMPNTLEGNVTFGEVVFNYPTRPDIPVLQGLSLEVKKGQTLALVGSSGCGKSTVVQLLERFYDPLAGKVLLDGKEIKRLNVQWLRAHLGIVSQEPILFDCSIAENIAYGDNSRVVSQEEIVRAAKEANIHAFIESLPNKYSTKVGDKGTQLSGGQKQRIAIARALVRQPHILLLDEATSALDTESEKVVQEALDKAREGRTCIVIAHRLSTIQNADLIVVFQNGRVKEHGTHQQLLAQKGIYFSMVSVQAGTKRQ
smiles,measurement,setting,value
"C=CC(=O)N1CCC([C@@H]2CCNc3c(C(N)=O)c(-c4ccc(Oc5ccccc5)cc4)nn32)CC1 [zanubrutinib, (S)-7-(1-acryloylpiperidin-4-yl)-2-(4-phenoxyphenyl)-4,5,6,7-tetrahydropyrazolo[1,5-a]pyrimidine-3-carboxamide]",Off-target kinases inhibited,panel of 370 kinases,seven
same,Mean increase of digoxin AUC0-t,P-glycoprotein,11%
same,Mean increase of digoxin Cmax,P-glycoprotein,34%
same,Grade ≥3 AE,160 mg bid group,28.6%
same,Neutropenia,160 mg bid group,19.0%
same,Patients with ≥1 AE,160 mg bid group,95.2%
same,SAE,160 mg bid group,9.5%
same,Treatment discontinuation due to AEs,160 mg bid group,4.8%
same,Grade ≥3 AE,320 mg qd group,32.0%
same,Neutropenia,320 mg qd group,8.0%
same,Patients with ≥1 AE,320 mg qd group,96%
same,SAE,320 mg qd group,16.0%
same,Treatment discontinuation due to AEs,320 mg qd group,12.0%
same,Arthralgia,67 patients,13.4%
same,Contusion,67 patients,22.4%
same,Death (COVID-19 pneumonia),67 patients,1.5%
same,Diarrhoea,67 patients,13.4%
same,Epistaxis,67 patients,7.5%
same,Fatigue,67 patients,20.9%
same,Grade ≥3 AEs,67 patients,29.9%
same,Hypertension,67 patients,11.9%
same,Myalgia,67 patients,14.9%
same,"Neutropenia or neutrophil count decreased, grade ≥3",67 patients,11.9%
same,Patients with ≥1 AE,67 patients,95.5%
same,Petechiae,67 patients,7.5%
same,Serious AEs,67 patients,11.9%
same,"Syncope, grade ≥3",67 patients,3.0%
same,Atrial fibrillation,"67 patients, all grade 2",4.5%
same,Patients who discontinued zanubrutinib,Cohort 1,15.8%
same,Patients who discontinued zanubrutinib due to AEs,Cohort 1,7.0%
same,Patients who discontinued zanubrutinib,Cohort 2,20.0%
same,Arthralgia,Grade 1,4 (6.0) n (%)
same,Back pain,Grade 1,2 (3.0) n (%)
same,Bronchitis,Grade 1,0 (0.0) n (%)
same,Cellulitis,Grade 1,0 (0.0) n (%)
same,Constipation,Grade 1,3 (4.5) n (%)
same,Contusion,Grade 1,12 (17.9) n (%)
same,Cough,Grade 1,4 (6.0) n (%)
same,Diarrhoea,Grade 1,6 (9.0) n (%)
same,Dizziness,Grade 1,3 (4.5) n (%)
same,Epistaxis,Grade 1,4 (6.0) n (%)
same,Fatigue,Grade 1,8 (11.9) n (%)
same,Headache,Grade 1,4 (6.0) n (%)
same,Hypertension,Grade 1,0 (0.0) n (%)
same,Insomnia,Grade 1,3 (4.5) n (%)
same,Muscle spasms,Grade 1,4 (6.0) n (%)
same,Myalgia,Grade 1,8 (11.9) n (%)
same,Nausea,Grade 1,6 (9.0) n (%)
same,Neutropenia,Grade 1,0 (0.0) n (%)
same,Neutrophil count decrease,Grade 1,0 (0.0) n (%)
same,Pain in extremity,Grade 1,3 (4.5) n (%)
same,Petechiae,Grade 1,5 (7.5) n (%)
same,Pruritus,Grade 1,3 (4.5) n (%)
same,Rash,Grade 1,5 (7.5) n (%)
same,Seborrheic keratosis,Grade 1,3 (4.5) n (%)
same,Skin laceration,Grade 1,2 (3.0) n (%)
same,Upper respiratory tract infection,Grade 1,3 (4.5) n (%)
same,Urinary tract infection,Grade 1,1 (1.5) n (%)
same,Arthralgia,Grade 2,5 (7.5) n (%)
same,Back pain,Grade 2,2 (3.0) n (%)
same,Bronchitis,Grade 2,3 (4.5) n (%)
same,Cellulitis,Grade 2,3 (4.5) n (%)
same,Constipation,Grade 2,1 (1.5) n (%)
same,Contusion,Grade 2,3 (4.5) n (%)
same,Cough,Grade 2,1 (1.5) n (%)
same,Diarrhoea,Grade 2,2 (3.0) n (%)
same,Dizziness,Grade 2,4 (6.0) n (%)
same,Epistaxis,Grade 2,1 (1.5) n (%)
same,Fatigue,Grade 2,6 (9.0) n (%)
same,Headache,Grade 2,0 (0.0) n (%)
same,Hypertension,Grade 2,7 (10.4) n (%)
same,Insomnia,Grade 2,2 (3.0) n (%)
same,Muscle spasms,Grade 2,1 (1.5) n (%)
same,Myalgia,Grade 2,2 (3.0) n (%)
same,Nausea,Grade 2,1 (1.5) n (%)
same,Neutropenia,Grade 2,0 (0.0) n (%)
same,Neutrophil count decrease,Grade 2,2 (3.0) n (%)
same,Pain in extremity,Grade 2,3 (4.5) n (%)
same,Petechiae,Grade 2,0 (0.0) n (%)
same,Pruritus,Grade 2,1 (1.5) n (%)
same,Rash,Grade 2,0 (0.0) n (%)
same,Seborrheic keratosis,Grade 2,1 (1.5) n (%)
same,Skin laceration,Grade 2,2 (3.0) n (%)
same,Upper respiratory tract infection,Grade 2,1 (1.5) n (%)
same,Urinary tract infection,Grade 2,4 (6.0) n (%)
same,Arthralgia,Grade 3,0 (0.0) n (%)
same,Back pain,Grade 3,0 (0.0) n (%)
same,Bronchitis,Grade 3,1 (1.5) n (%)
same,Cellulitis,Grade 3,1 (1.5) n (%)
same,Constipation,Grade 3,0 (0.0) n (%)
same,Contusion,Grade 3,0 (0.0) n (%)
same,Cough,Grade 3,0 (0.0) n (%)
same,Diarrhoea,Grade 3,1 (1.5) n (%)
same,Dizziness,Grade 3,0 (0.0) n (%)
same,Epistaxis,Grade 3,0 (0.0) n (%)
same,Fatigue,Grade 3,0 (0.0) n (%)
same,Headache,Grade 3,0 (0.0) n (%)
same,Hypertension,Grade 3,1 (1.5) n (%)
same,Insomnia,Grade 3,0 (0.0) n (%)
same,Muscle spasms,Grade 3,0 (0.0) n (%)
same,Myalgia,Grade 3,0 (0.0) n (%)
same,Nausea,Grade 3,0 (0.0) n (%)
same,Neutropenia,Grade 3,5 (7.5) n (%)
same,Neutrophil count decrease,Grade 3,2 (3.0) n (%)
same,Pain in extremity,Grade 3,0 (0.0) n (%)
same,Petechiae,Grade 3,0 (0.0) n (%)
same,Pruritus,Grade 3,0 (0.0) n (%)
same,Rash,Grade 3,0 (0.0) n (%)
same,Seborrheic keratosis,Grade 3,0 (0.0) n (%)
same,Skin laceration,Grade 3,0 (0.0) n (%)
same,Upper respiratory tract infection,Grade 3,0 (0.0) n (%)
same,Urinary tract infection,Grade 3,0 (0.0) n (%)
same,Arthralgia,Grade 4,0 (0.0) n (%)
same,Back pain,Grade 4,0 (0.0) n (%)
same,Bronchitis,Grade 4,0 (0.0) n (%)
same,Cellulitis,Grade 4,0 (0.0) n (%)
same,Constipation,Grade 4,0 (0.0) n (%)
same,Contusion,Grade 4,0 (0.0) n (%)
same,Cough,Grade 4,0 (0.0) n (%)
same,Diarrhoea,Grade 4,0 (0.0) n (%)
same,Dizziness,Grade 4,0 (0.0) n (%)
same,Epistaxis,Grade 4,0 (0.0) n (%)
same,Fatigue,Grade 4,0 (0.0) n (%)
same,Headache,Grade 4,0 (0.0) n (%)
same,Hypertension,Grade 4,0 (0.0) n (%)
same,Insomnia,Grade 4,0 (0.0) n (%)
same,Muscle spasms,Grade 4,0 (0.0) n (%)
same,Myalgia,Grade 4,0 (0.0) n (%)
same,Nausea,Grade 4,0 (0.0) n (%)
same,Neutropenia,Grade 4,0 (0.0) n (%)
same,Neutrophil count decrease,Grade 4,1 (1.5) n (%)
same,Pain in extremity,Grade 4,0 (0.0) n (%)
same,Petechiae,Grade 4,0 (0.0) n (%)
same,Pruritus,Grade 4,0 (0.0) n (%)
same,Rash,Grade 4,0 (0.0) n (%)
same,Seborrheic keratosis,Grade 4,0 (0.0) n (%)
same,Skin laceration,Grade 4,0 (0.0) n (%)
same,Upper respiratory tract infection,Grade 4,0 (0.0) n (%)
same,Urinary tract infection,Grade 4,0 (0.0) n (%)
same,Serious atrial fibrillation,"Safety Analysis Set, 72 patients",2.8%
same,Arthralgia,Total,9 (13.4) n (%)
same,Back pain,Total,4 (6.0) n (%)
same,Bronchitis,Total,4 (6.0) n (%)
same,Cellulitis,Total,4 (6.0) n (%)
same,Constipation,Total,4 (6.0) n (%)
same,Contusion,Total,15 (22.4) n (%)
same,Cough,Total,5 (7.5) n (%)
same,Diarrhoea,Total,9 (13.4) n (%)
same,Dizziness,Total,7 (10.4) n (%)
same,Epistaxis,Total,5 (7.5) n (%)
same,Fatigue,Total,14 (20.9) n (%)
same,Headache,Total,4 (6.0) n (%)
same,Hypertension,Total,8 (11.9) n (%)
same,Insomnia,Total,5 (7.5) n (%)
same,Muscle spasms,Total,5 (7.5) n (%)
same,Myalgia,Total,10 (14.9) n (%)
same,Nausea,Total,7 (10.4) n (%)
same,Neutropenia,Total,5 (7.5) n (%)
same,Neutrophil count decrease,Total,5 (7.5) n (%)
same,Pain in extremity,Total,6 (9.0) n (%)
same,Petechiae,Total,5 (7.5) n (%)
same,Pruritus,Total,4 (6.0) n (%)
same,Rash,Total,5 (7.5) n (%)
same,Seborrheic keratosis,Total,4 (6.0) n (%)
same,Skin laceration,Total,4 (6.0) n (%)
same,Upper respiratory tract infection,Total,4 (6.0) n (%)
same,Urinary tract infection,Total,5 (7.5) n (%)
same,Bleeding events,in vivo,25 patients
same,Median time to onset of first hypertensive event,in vivo,105 days
same,Patients requiring dose reductions,in vivo,9.0%
same,Rate of zanubrutinib discontinuation due to AEs,in vivo,< 10%
